Measurements as given in the supplement of paper PMC10307832.

How the values were obtained:
Test in all cases: relative viability (nuclei count vs DMSO), 5 days (fraction); higher = more cells survive
Bortezomib + AZD7762 = compound: CC(C)C[C@H](NC(=O)[C@H](Cc1ccccc1)NC(=O)c1cnccn1)B(O)O [Bortezomib] + NC(=O)Nc1cc(-c2cccc(F)c2)sc1C(=O)N[C@H]1CCCNC1 [AZD7762] (partner 0.2 µM)
Procedure, shortened: (§1)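 Values are medians from duplicate plates. Each reflects relative viability, defined as the nuclei count of treated wells over that of vehicle wells. Lung cancer cell lines in 1536-well plates were pin-tool dosed one day after seeding with one drug alone or with a fixed anchor-drug dose plus five library-drug doses (not always all listed) in √10 steps, then fixed, stained and imaged at 4× after 5 days.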

[1] = compound: CC1=CC(=NN1)NC2=CC(=NC(=N2)/C=C/C3=CC=CC=C3)N4CCN(CC4)C + CC1(C)CCC(c2ccc(Cl)cc2)=C(CN2CCN(c3ccc(C(=O)NS(=O)(=O)c4ccc(N[C@H](CCN5CCOCC5)CSc5ccccc5)c(S(=O)(=O)C(F)(F)F)c4)cc3)CC2)C1 [Navitoclax] (partner 0.5 µM)
Procedure, shortened: as §1

[2] = compound: CC1=CC(=NN1)NC2=CC(=NC(=N2)/C=C/C3=CC=CC=C3)N4CCN(CC4)C + COc1cc2c(Oc3ccc(NC(=O)C4(C(=O)Nc5ccc(F)cc5)CC4)cc3F)ccnc2cc1OCCCN1CCOCC1 [Foretinib] (partner 0.25 µM)
Procedure, shortened: as §1

Obatoclax + Decitabine = compound: COC1=CC(c2cc3ccccc3[nH]2)=N/C1=C\c1[nH]c(C)cc1C [Obatoclax] + Nc1ncn([C@H]2C[C@H](O)[C@@H](CO)O2)c(=O)n1 [Decitabine] (partner 2 µM)
Procedure, shortened: as §1

Cell Line	relative viability (Bortezomib + AZD7762; first compound 0.0002 µM)	relative viability (Bortezomib + AZD7762; first compound 0.000632 µM)	relative viability (Bortezomib + AZD7762; first compound 0.002 µM)	relative viability (Bortezomib + AZD7762; first compound 0.006325 µM)	relative viability (Bortezomib + AZD7762; first compound 0.02 µM)	relative viability ([1]; first compound 0.08 µM)	relative viability ([1]; first compound 0.253 µM)	relative viability ([1]; first compound 0.8 µM)	relative viability ([1]; first compound 2.53 µM)	relative viability ([1]; first compound 8 µM)	relative viability ([2]; first compound 0.08 µM)	relative viability ([2]; first compound 0.253 µM)	relative viability ([2]; first compound 0.8 µM)	relative viability ([2]; first compound 2.53 µM)	relative viability ([2]; first compound 8 µM)	relative viability (Obatoclax + Decitabine; first compound 0.01 µM)	relative viability (Obatoclax + Decitabine; first compound 0.03162 µM)	relative viability (Obatoclax + Decitabine; first compound 0.1 µM)	relative viability (Obatoclax + Decitabine; first compound 0.3162 µM)	relative viability (Obatoclax + Decitabine; first compound 1 µM)
NCI-H838	0.878	0.925	0.9	0.682	0.622	1.22	1.22	0.866	0.305	0.134	0.99	1.14	0.965	0.798	0.131	0.471	0.412	0.511	0.338	0.32
NCI-H1355	0.794	0.721	0.922	0.293	0.133	0.878	0.961	0.974	0.701	0.386	0.879	1.05	0.985	0.743	0.18	0.368	0.347	0.338	0.334	0.335
NCI-H1395	0.381	0.393	0.385	0.323	0.304	1.32	1.27	1.59	0.676	0.308	1.11	1.11	0.93	0.663	0.347	0.716	0.735	0.754	0.695	0.513
NCI-H1437	1.09	1.11	1.04	0.496	0.194	1.06	1.12	1.03	0.816	0.175	1.19	1.31	1.3	1.25	0.474	0.626	0.426	0.601	0.537	0.43
NCI-H1651	0.451	0.474	0.485	0.507	0.131	0.974	1.11	0.837	0.424	0.129	0.732	0.899	0.913	0.447	0.162	0.582	0.338	0.434	0.355	0.495
NCI-H1666	0.849	0.935	0.817	0.592	0.333	0.951	0.898	0.906	0.64	0.222	1.02	0.948	1	0.739	0.33	0.731	0.688	0.68	0.586	0.691
NCI-H1734	0.563	0.541	0.57	0.116	0.0989	0.837	0.81	0.8	0.331	0.108	0.816	0.828	0.815	0.447	0.161	0.504	0.467	0.511	0.491	0.506
NCI-H1755	0.442	0.425	0.508	0.287	0.2	0.984	0.98	0.974	0.504	0.155	0.9	0.962	0.866	0.622	0.297	0.684	0.617	0.697	0.655	0.662
NCI-H1793	0.512		0.394	0.803	0.0834	0.516	0.446	0.466	0.156	0.131	0.349	0.663	0.329	0.121	0.112	0.578	0.47	0.519	0.421	0.415
NCI-H1915	0.751	0.726	0.715	0.163	0.0511	0.762	0.8	0.779	0.539	0.213	1.01	1.13	1.06	0.817	0.386	0.268	0.267	0.24	0.256	0.272
NCI-H1944	0.508	0.511	0.637	0.295	0.166	1.04	1.08	1.03	0.866	0.266	0.916	0.949	0.853	0.535	0.216	0.429	0.42	0.464	0.431	0.388
NCI-H1975	0.727	0.652	0.319	0.172	0.194	0.977	1.12	1.08	0.616	0.134	0.928	1.02	0.795	0.326	0.128	0.476	0.365	0.322	0.38	0.278
NCI-H1993	0.838	0.877		0.333	0.324	0.94		0.78	0.576	0.489	0.754	0.911	0.763	0.594	0.447	0.659	0.545	0.618	0.611	0.612
NCI-H2085	1.04	0.907	1.07	0.881	0.225	1.24	1.19	0.994	0.489	0.315	0.972	1.04	0.842	0.552	0.227	0.531	0.484	0.524	0.499	0.472
NCI-H2087	1.3	1.23	1.19	0.0709	0.0403	0.974	0.923	1.11	0.247	0.122	1.05	1.14	1.02	0.336	0.111	0.215	0.254	0.34	0.135	0.142
NCI-H2126	1	1.01	0.968	0.942	0.516	0.839	0.871	0.806	0.772	0.478	1.06	1.09	1.19	1.03	0.587	0.56	0.536	0.574	0.561	0.587
